Measurements from US8846351B2, “Compositions for enhancing hydroysis of cellulosic material by cellulolytic enzyme compositions” (Novozymes, Inc., priority 2010, dated 2014).
Where two headings read alike, the source gives them in different places.

Experiments:
[1] = system: Trichoderma reesei cellulase composition; type: biochemical; conditions: AVICEL, 1 mM organic compound
Description: Microcrystalline cellulose was used as the source of cellulosic material.
The concentration of each organic compound was 1 mM.

[2] = cited from earlier work
[3] = target: T. aurantiacus GH61A polypeptide (Thermoascus aurantiacus, UniProt G3XAP7, N13Y); test: PACE analysis of products from PASC incubated with organic compound, Ca(II) and T. aurantiacus GH61A polypeptide at various pH; type: biochemical
Description: Polysaccharide-analysis-using-carbohydrate-gel-electrophoresis (PACE) was applied to analyze the products from incubation of cellulose in the presence of Ca(II) and ascorbate, cysteine or gallic acid and the T. aurantiacus GH61A polypeptide.
The mixture was filtered, and the filtrate (90 μl) was subjected to PACE analysis as described below. Buffers were varied to obtain the following pH values: formic acid at pH 4, acetic acid at pH 5, triethylammonium acetate at pH 6-7, and ammonium acetate at pH 8-9.
Carbohydrate products from the reaction were derivatized with 8-aminonaphthalene-1,3,6-trisulfonic acid (ANTS) fluorophore, applied to a polyacrylamide gel, and subjected to PACE, according to protocols adapted from (Goubet et al, 2002, Analytical Biochemistry 300: 53-68). Briefly, the derivatization was conducted by first drying 45 μl of the reaction products in a Jouan RC1010 vacuum concentrator system (Jouan Inc., Vallensbaekvej, Denmark) at 40° C. for about 3 hours, then mixing the dried products with 5 μl of 0.2 M ANTS in 15% acetic acid and 5 μl of 1 M NaBH3CN in DMSO, incubation at 37° C. in a thermomixer overnight followed by exposure to air for about 30 minutes, and then drying in a vacuum concentrator at 40° C. for about 4 hours. The ANTS-labeled samples were mixed with 20 μl of 6 M urea prior to PACE analysis.
Gels were cast according to Goubet et al., 2002, supra. The electrophoresis was performed with an SE 660 vertical electrophoresis system (GE Healthcare, Park Alle, Denmark) in a Tris/Borate buffer system at 200 V for 30 minutes and then at 1000 V for almost 2 hours at +5° C., followed by visualization using a UVP BioImaging System (UVP, LLC, Upland, Calif., USA) with UV transilluminator (Wavelength 365 nm UV-A) and EpiChem Darkroom combined with a camera system using a SYBR Gold™ emission filter (Syngene, Cambridge, United Kingdom).
Densitometry was performed by visual definition of a minimal space containing the band of interest, and integration of total pixel intensity within the space using a series of MatLab® scripts (The Mathworks, Natick, Mass., USA).

Chain of T. aurantiacus GH61A polypeptide (G3XAP7 whole entry N13Y): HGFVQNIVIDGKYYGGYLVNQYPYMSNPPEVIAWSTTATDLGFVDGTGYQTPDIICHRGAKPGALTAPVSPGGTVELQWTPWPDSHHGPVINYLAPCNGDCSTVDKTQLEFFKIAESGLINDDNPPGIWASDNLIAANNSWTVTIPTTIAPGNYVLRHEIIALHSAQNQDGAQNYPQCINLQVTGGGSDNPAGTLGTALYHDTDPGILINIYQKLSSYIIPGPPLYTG

SMILES	organic compound effect(no GH61) ([1]; pH 5.0, 50° C., 3 days)	organic compound effect(no GH61) ([1]; pH 5.0, 50° C., 7 days)	also measured
COC(=O)c1ccc(O)cc1 [methyl-4-hydroxybenzoate]			organic compound effect(no GH61) ([1]; time not specified (FIG. 1: 3 and 7 days)): slightly inhibited
COc1cc(C=CC(=O)O)ccc1O [4-hydroxy-3-methoxycinnamic acid]	below 1	approximately 1	
O=C(O)c1cc(O)c(O)c(O)c1 [gallic acid]			pKa [2]: 4.5; PACE band intensity as a function of pH (densitometry) ([3]; cellodextrin bands of apparent DP 4, 8 and 9): increased in intensity with increasing pH; PACE product bands at low pH ([3]; lowest pH examined, 3.9): near zero; shape of the increase of PACE band intensity with pH ([3]; pH range about 3.9 to 5.6): sharp increase in product intensity was noted between pH values of 4.5 and 5.5
O=C(O)c1cc(O)cc(O)c1 [3,5-dihydroxybenzoic acid]		greater than 1	
N[C@@H](CS)C(=O)O [cysteine]			products detected on PACE ([3]; PASC, Ca(II), GH61A polypeptide, 50° C., pH at or above the pKa of the compound): products similar to cellodextrins having 1-7 glucosyl units were detected
COC(=O)c1cc(O)c(O)c(O)c1 [methyl-3,4,5-trihydroxybenzoate]	0.989±0.0121	0.947±0.00189	
O=C(O)c1ccc(O)cc1 [4-hydroxybenzoic acid]	0.959±0.0162	0.961±0.0250	
O=C(O)C(O)C(O)C(=O)O (stereo not shown) [tartrate]	below 1	below 1	
Oc1ccccc1O [pyrocatechol]		0.766±0.0361	
Oc1cccc(O)c1O [pyrogallol]		0.735±0.00518	
O=C(O)c1ccc(O)c(O)c1 [3,4-dihydroxybenzoic acid]		0.977±0.0208	
O=C1OC(C(O)CO)C(=O)C1=O (stereo not shown) [dehydroascorbate]	1.05±0.0058	1.14±0.00522	
N[C@@H](CCC(=O)O)C(=O)O [glutamic acid]	below 1	above 1	
